ChEMBL document CHEMBL2203104, “Recent advances in antitubercular natural products” (Eur J Med Chem, 2012)
Values after ≈ are worked out from the molar mass of the structure shown.

Experiments:
Assay type in all cases: functional
[1] = tested on: Mycobacterium tuberculosis; experiment: Antimycobacterial activity against multidrug-resistant Mycobacterium tuberculosis
[2] = tested on: Mycobacterium tuberculosis; experiment: Antimycobacterial activity against rifampicin-resistant Mycobacterium tuberculosis
[3] = Selectivity index, ratio of IC50 for african green monkey Vero cells to MIC for multidrug-resistant Mycobacterium tuberculosis

`CC(C)C1=C(O)C(=O)C2=C(C1=O)[C@H](O)C[C@H]1C(C)(C)CCC[C@]21C` [HORMINONE] gave an MIC [1] of 12.5 µg/mL (≈ 37.6 µM).
`C=C(C)C(CC[C@@H](C)[C@H]1CC[C@@]2(C)[C@@H]3CC[C@H]4C(C)(C)[C@@H](O)CC[C@@]45C[C@@]35CC[C@]12C)OO` (stereo not given in full) showed an MIC [1] of 25 µg/mL (≈ 54.5 µM).
In the case of `C/C=C(/NC(=O)c1csc(-c2csc(-c3ccc4c(n3)-c3csc(n3)C(C(C)(O)C(C)O)NC(=O)c3csc(n3)C(C(C)C)NC(=O)c3csc(n3)/C(=C/OC)NC(=O)C(C(C)O)NC(=O)c3csc-4n3)n2)n1)C(=O)OC` (stereo not given) [NOCARDITHIOCIN], the MIC [2] is reported as 0.025 µg/mL (≈ 0.0215 µM).
With `CC(=O)O[C@H]1C2=C(C(=O)C(OC(=O)c3ccc(Cl)cc3)=C(C(C)C)C2=O)[C@@]2(C)CCCC(C)(C)[C@@H]2[C@@H]1O` the MIC [1] was 0.78 µg/mL (≈ 1.47 µM).
Work on `CC(C)C1=C(O)C(=O)C2=C(C1=O)[C@H](O)[C@@H](O)[C@H]1C(C)(C)CCC[C@]21C` yielded an MIC [1] of 12.5 µg/mL (≈ 35.9 µM).
`C[C@H](C/C=C/C(C)(C)OO)[C@H]1CC[C@@]2(C)[C@@H]3CC[C@H]4C(C)(C)[C@@H](O)CC[C@@]45C[C@@]35CC[C@]12C` gave an MIC [1] of 12.5 µg/mL (≈ 27.2 µM).
For `CC(C)C1=C(O)C(=O)C2=C(C=C[C@H]3C(C)(C)CCC[C@]23C)C1=O`, the MIC [1] was 12.5 µg/mL (≈ 39.8 µM).
For `COc1ccc(C(=O)OC2=C(C(C)C)C(=O)C3=C(C2=O)[C@@]2(C)CCCC(C)(C)[C@@H]2[C@H](O)[C@H]3OC(C)=O)cc1`, the MIC [1] was 0.39 µg/mL (≈ 0.743 µM) and the “Selectivity Index” value [3] was 6.6.
`CC(=O)O[C@H]1C2=C(C(=O)C(O)=C(C(C)C)C2=O)[C@@]2(C)CCCC(C)(C)[C@@H]2[C@@H]1O` showed an MIC [1] of 3.12 µg/mL (≈ 7.99 µM).
